Results taken from publication PMC4300089, “Structure-Guided Design of Selective Epac1 and Epac2 Agonists” (PLoS Biology, 2015).

Key:
PKA = experiment: Cellular PKA activity: P-VASP band shift in U2OS Epac1 and Epac2 cell lines; format: cell-based; settings: for rel. P-VASP: PKA, average of Epac1 and Epac2 cell lines, relative to induction with forskolin and IBMX, Fig. 6C
Description: Rap•GTP levels were determined by precipitating GTP-bound Rap specifically from cell lysates and subsequent western Blotting with an α-Rap antibody (Santa Cruz Biotechnology). To generate stable cell lines, U2OS cells were transfected with pBabe-Flag-Epac1 (Epac1, homo sapiens, amino acids 1–881) or pBabe-Flag-Epac2 (Epac2, mus musculus, amino acids 1–993), selected for Epac expression and maintained under selection with 2 mg/l puromycin. The cells were cultured according to standard protocols. The activity of PKA was determined by western blotting with a monoclonal α-VASP antibody (BD Transduction Laboratories). Blots were developed by enhanced chemiluminescence (ECL) and the use of X-ray films; for quantification films were scanned. The intensities of the Rap•GTP bands and the upper band of VASP (P-VASP) were determined for each condition in ImageJ and normalized to the stimulation with forskolin and IBMX for each blot.

Epac2^Δ280 = target: T1, Epac2^Δ280 (Mus musculus, UniProt Q9EQZ6); experiment: Epac activation assay (Rap1B•mGDP fluorescence nucleotide exchange), Epac2^Δ280; format: biochemical; settings: Epac2^Δ280; for Rel. kmax: maximal activity relative to cAMP
T1 construct: made in house
T1 sequence (Q9EQZ6 281-993 isoform Q9EQZ6-3): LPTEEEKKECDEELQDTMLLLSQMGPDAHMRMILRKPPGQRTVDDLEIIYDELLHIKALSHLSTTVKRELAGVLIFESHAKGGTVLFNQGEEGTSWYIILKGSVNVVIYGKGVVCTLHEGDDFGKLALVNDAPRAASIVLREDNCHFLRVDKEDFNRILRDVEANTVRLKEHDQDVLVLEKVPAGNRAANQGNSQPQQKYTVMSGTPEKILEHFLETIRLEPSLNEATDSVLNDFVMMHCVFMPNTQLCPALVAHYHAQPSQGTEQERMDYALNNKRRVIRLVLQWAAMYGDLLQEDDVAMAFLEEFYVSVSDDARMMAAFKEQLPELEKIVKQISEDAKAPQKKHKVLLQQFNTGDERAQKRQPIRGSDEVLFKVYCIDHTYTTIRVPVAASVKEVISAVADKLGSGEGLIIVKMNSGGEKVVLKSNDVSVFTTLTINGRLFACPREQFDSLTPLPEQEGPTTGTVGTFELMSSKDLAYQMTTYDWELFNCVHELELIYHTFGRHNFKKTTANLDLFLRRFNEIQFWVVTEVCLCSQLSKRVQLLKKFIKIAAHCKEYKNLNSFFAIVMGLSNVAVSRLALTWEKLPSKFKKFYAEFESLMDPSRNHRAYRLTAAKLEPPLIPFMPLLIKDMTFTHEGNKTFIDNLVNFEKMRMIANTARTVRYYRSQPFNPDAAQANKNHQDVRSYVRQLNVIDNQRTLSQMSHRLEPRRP
Description: Murine Epac2 was used as all previous structural studies were performed with it.
The activity of Epac was determined by a fluorescence assay. […] The fluorescence intensity of Rap1B•mGDP is approximately twice that of free mGDP, and thus, nucleotide exchange can be observed as a decay in fluorescence upon the addition of excess unlabeled GDP.

Structure (SMILES) | rel. P-VASP (PKA) | AC50 (Epac2^Δ280) [nM] | Rel. kmax (Epac2^Δ280) | activation of PKA in cells (PKA; U2OS cell lines)
Nc1ncnc2c1nc(Sc1ccc(Cl)cc1)n2[C@@H]1O[C@@H]2COP(=O)(O)O[C@H]2[C@H]1O [L-026, 8-pCPT-cAMP] | 0.9052 | 80 | 0.5 | 
COC1C2OP(=O)(O)OCC2OC1n1c(Sc2ccc(Cl)cc2)nc2c(N)ncnc21 [D-007, 8-pCPT-2′-O-Me-cAMP, reference compound] | 0.1351 | 3500 | 0.8 | only minor effects
